Results reported in patent US5208223A, “Phosphocholine derivative inhibitors of phospholipase A2” (American Cyanamid Company, priority 1992, dated 1993).
Counter-ions that a name gives are not always drawn. One block for each compound: values may come before it.

Legend:
Type in all cases: biochemical
[1] = target: T1, porcine pancreatic PLA2 (Sus scrofa, UniProt P00592); test: MHPLA2 assay: in vitro porcine pancreatic phospholipase A2, mixed micelle design, [s]=10 μm; conditions: for inhibition at 25 µg/mL: dose 25 μ/ml; for inhibition at 50 µg/mL: dose 50 μ/ml
T1 construct: purchased Sigma
T1 sequence (P00592 23-146): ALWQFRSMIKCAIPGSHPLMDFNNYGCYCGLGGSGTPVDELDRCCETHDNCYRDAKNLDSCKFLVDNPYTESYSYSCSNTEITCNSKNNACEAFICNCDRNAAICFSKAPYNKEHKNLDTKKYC
In short: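 Compounds dried with 10 μM 1-stearyl-2-[3H]-arachidonyl-PC substrate in mixed micelles (0.1M tris-HCl pH 9.0, 10 mM CaCl2, 10 mM Na taurocholate). Reaction started by adding enzyme and run 15 min at 37°C, then stopped with TCA. Released [3H]-arachidonate separated by TLC or column and counted by scintillation.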

[2] = target: T1, porcine pancreatic PLA2; test: PLA2 assay: in vitro porcine pancreatic phospholipase A2, preincubation of drug+enzyme, substrate 2 nM; conditions: preincubation, subs. con. 2; for inhibition at 10 µg/mL: dose 10 μ/ml; for inhibition at 20 µg/mL: dose 20 μ/ml; for IC50: read-out: IC50 (converted)
In short: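 Porcine pancreatic PLA2 acting on 2 nM radiolabeled arachidonyl-phosphatidylcholine in mixed micelles (0.1 M Tris-HCl pH 9.0, 10 mM CaCl2, 10 mM Na taurocholate), 15 min at 37 °C with preincubation of drug and enzyme. Stopped with TCA; released 3H-arachidonate extracted, separated by TLC or column, counted by scintillation.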

[3] = target: T1, porcine pancreatic PLA2; test: MPLA2 assay: in vitro porcine pancreatic phospholipase A2, mixed micelle design, substrate 2 nM; conditions: for inhibition at 10 µg/mL / inhibition at 20 µg/mL / inhibition at 25 µg/mL: subs. con. 2, read-out: % Inh.; for inhibition at 25 µg/mL: dose 25 μ/ml; for IC50 / % Inh.: subs. con. 2
Procedure: (§1) Phospholipase A2 activity was measured by a radiochemical assay in which labeled synthetic phosphatidylcholine substrate is converted by porcine pancreatic PLA2 to free radiolabeled arachidonate and lyso PC. Radiolabeled arachidonate is extracted from the reaction mixture and separated from unreacted substrate by column chromatography or TLC. Radioactivity (cpm) in samples is quantitated by liquid scintillation counting. Specific details are as follows:
(§2) Labeled substrate(1-stearyl-2-^3 H-arachidonylphosphatidylcholine; Amersham, sp. act. 84 (uCi/mmole, 0.025 to 0.2 uCi/assay tube and unlabeled substrates (Avanti), in sufficient quantity to give 20,000 cpm to 50,000 cpm and 10 μM to 1,000 μM final concentration/assay tube are dried under a stream of nitrogen. The PLA2 and mPLA2 assays utilized a […] substrate concentration. The mHPLA2 and HPLA2 assays (vida infra) utilized a 10 μM substrate concentration and the SmPLA2 assay utilized a substrate concentration ranging from 100 to 1000 μm. The substrate is then redissolved in 0.1M tris-HCl buffer, pH 9.0 containing 10 mM CaCl2 and 10 mM Na taurocholate detergent. The mixture is sonicated in a Kontes Sonifier to yield a homogeneous dispersion. The "mixed" micellar substrate is clear. An aliquot is reserved for a cpm count (total substrate). The total reaction volume is 500 μL; siliconized glassware or plasticware is used throughout. Enzyme (Sigma, sp. act.>690 U/mg protein and preferably 900 U/mg protein) is diluted 1:750 or 1:1000 in 0.1M tris-HCl buffer, pH 9.0 (without Ca^++ and detergent). Enzyme dilution depends on substrate concentration and required enzyme concentration.
(§3) The substrate in buffer is kept on ice until the reaction is started. The reaction is started by adding 10 μL of diluted enzyme solution to 490 μL of micellar substrate solution. Samples are incubated in a 37° C. water bath for 15 minutes with gentle mixing. The reaction is terminated by the addition of 100 μL of 1M fresh trichloroacetic acid (TCA) solution and chilling the tubes on ice for 30 minutes.
(§4) Samples (600 μL) are extracted with 3 ml CHCl3 /MeOH (2:1) for thin layer chromatography or in hexane/ether (9:1) for column chromatography. The phases are separated by gentle centrifugation at 700 rpm×5'. The organic phase is recovered.
(§5) Labeled arachidonate extracted with CHCl3 /MeOH is separated on silica gel G TLC plates (Analtech). Twenty μL of a 2 mg/ml internal standard solution of arachidonic acid (Sigma) is combined with 2-3 ml of the organic phase. The entire mixture is dried under nitrogen and redissolved in 50 μL of CHCl3 /MeOH (2:1). A 20 μL sample is counted in 10 ml of Beckman Redi-solv HP and spotted on silica gel G plates. The solvent system used to develop the plate is CHCl3 /MeOH/13.5N NH3 /H2 O (70:30:4:1). Plates are developed in a glass chamber for 1-11/2 hours, air dried, and the spots visualized in an iodine vapor chamber. Standards of phosphatidylcholine, lyso PC, and arachidonic acid (Sigma) are made as 2 mg/ml stocks in CHCl3 /MeOH (2:1) and spotted on plates. Spots corresponding to arachidonate and phospholipid are scraped and counted in 10 ml Beckman Redi-Solv HP scintillation fluid.
(§6) Samples are extracted with hexane/ether and the upper organic phase recovered. An aliquot is applied to a Silicar CC4 (Malincrodt) column. Columns are prepared using 1 ml of a 1:1 slurry of silicar CC4 in hexane/ether in a Pasteur pipet (approx. 2 cm height). Columns are rinsed with 500 μL of hexane/ether before adding the sample (300-600 μL) to the column. Columns are eluted with a total of 6 ml of hexane/ether. The 6 ml sample is counted in 10 ml of Beckman Redi-Solv HP scintillation fluid.
(§7) or the phospholipase A2 assay, compounds are prepared as 1 mg/ml stock solutions in MeOH and diluted appropriately in PBS. […]

[4] = target: T1, porcine pancreatic PLA2; test: SMPLA2 assay: in vitro porcine pancreatic phospholipase A2, mixed micelle design, substrate 100 to 1000 μm; conditions: for inhibition at 10 µg/mL: dose 10 μ/ml; for inhibition at 25 µg/mL: dose 25 μ/ml; for inhibition at 50 µg/mL: dose 50 μ/ml
Procedure: as §1, §2, §3, §4, §5, §6, §7

[5] = subs. con. 10, read-out: % Inh.
[6] = subs. con. 10, read-out: % Inh. Avg.

Structure (SMILES): CCCCCCCCCCCCCCCCOCC(COP(=O)([O-])OCC[N+](C)(C)C)CSCCCCCCCCCCCCCCCC (centres unmarked) [7-[(Hexadecylthio)methyl]-4-hydroxy-N,N,N-trimethyl-3,5,9-trioxa-4-phosphapentacosan-1-aminium, hydroxide, inner salt, 4-oxide]
- % Inh. ([1]; dose 10 μ/ml, subs. con. 10): STIM
- % Inh. ([1]; dose 20 μ/ml, subs. con. 10): STIM
- inhibition at 25 µg/mL [1, 5]: 81%
- inhibition at 10 µg/mL ([2]; read-out: % Inh. Avg.): 26%
- inhibition at 20 µg/mL ([2]; read-out: % Inh.): 61%
- IC50 [2]: 4.75 µM
- inhibition at 10 µg/mL ([3]; dose 10 μ/ml): 59%
- inhibition at 20 µg/mL ([3]; dose 20 μ/ml): 69%
- inhibition at 25 µg/mL [3]: 79%
- IC50 [3]: 7.61 µM

- inhibition at 10 µg/mL ([1]; dose 10 μ/ml, subs. con. 10, read-out: % Inh. Avg.): 8%
- inhibition at 25 µg/mL [1, 6]: 10%
- inhibition at 50 µg/mL [1, 5]: 37%
- inhibition at 50 µg/mL [1, 6]: 137%
- inhibition at 10 µg/mL ([4]; subs. con. 100): 8%
- inhibition at 10 µg/mL ([4]; subs. con. 500): 0%
- inhibition at 10 µg/mL ([4]; subs. con. 1000): 5%
- inhibition at 25 µg/mL ([4]; subs. con. 100): 1%
- inhibition at 25 µg/mL ([4]; subs. con. 500): 0%
- inhibition at 25 µg/mL ([4]; subs. con. 1000): 10%
- inhibition at 50 µg/mL ([4]; subs. con. 100): 18%
- inhibition at 50 µg/mL ([4]; subs. con. 500): 8%
- inhibition at 50 µg/mL ([4]; subs. con. 1000): 6%
- inhibition at 10 µg/mL ([3]; dose 10 μ/ml): 82%
- inhibition at 20 µg/mL ([3]; dose 20 μ/ml): 82%
- IC50 [3]: 1.81 µM
Structure (SMILES): CCCCCCCCCCCCCCCCOCC(COP(=O)([O-])OCC[N+](C)(C)C)OC(=O)C(Br)CCCCCCCCCCCCCCCC (centres unmarked) [10-Bromo-7-[(hexadecyloxy)methyl]-4-hydroxy-N,N,N-trimethyl-9-oxo-3,5,8-trioxa-4-phosphahexacosan-1-aminium, hydroxide, inner salt, 4-oxide]

Structure (SMILES): CCCCCCCCCCCCCCCC[C@]1(COP(=O)([O-])OCC[N+](C)(C)C)CC(=O)N1 [(2R)-2-[[[(2-Hexadecyl-4-oxo-2-azetidinyl)methoxy]hydroxyphosphinyl]oxy]-N,N,N-trimethylethanaminium, hydroxide, inner salt]
- % Inh. ([1]; dose 10 μ/ml, subs. con. 10): STIM
- inhibition at 20 µg/mL ([1]; dose 20 μ/ml, subs. con. 10): 0%
- inhibition at 25 µg/mL [1, 5]: 26%
- inhibition at 10 µg/mL ([2]; read-out: % Inh.): 82%
- inhibition at 20 µg/mL ([2]; read-out: % Inh.): 79%
- IC50 [2]: 2.85 µM
- % Inh. ([3]; dose 10 μ/ml): STIM
- % Inh. ([3]; dose 20 μ/ml): STIM

- inhibition at 25 µg/mL [1, 5]: 35%
- inhibition at 20 µg/mL ([2]; read-out: % Inh.): 24%
- inhibition at 25 µg/mL ([2]; dose 25 μ/ml, read-out: % Inh.): 93%
- inhibition at 25 µg/mL [3]: 93%
Structure (SMILES): CCCCCCCCCCCCCCCCCC(=O)NCC(CO)COCCCCCCCCCCCCCCCC (centres unmarked) [N-[3-(Hexadecyloxy)-2-hydroxymethyl)propyl]octadecanamide]
